Laboratory results published in ChEMBL document CHEMBL1152934, “Quinazolindione derivatives as potent 5-HT3A receptor antagonists” (Bioorg Med Chem, 2009).

Biological target: 5-hydroxytryptamine receptor 3A (Mus musculus) (UniProt P23979)
Assay: Antagonist activity at 5HT3A receptor expressed in Xenopus oocyte

Chain of 5-hydroxytryptamine receptor 3A (Mus musculus) (P23979 whole entry, looked up): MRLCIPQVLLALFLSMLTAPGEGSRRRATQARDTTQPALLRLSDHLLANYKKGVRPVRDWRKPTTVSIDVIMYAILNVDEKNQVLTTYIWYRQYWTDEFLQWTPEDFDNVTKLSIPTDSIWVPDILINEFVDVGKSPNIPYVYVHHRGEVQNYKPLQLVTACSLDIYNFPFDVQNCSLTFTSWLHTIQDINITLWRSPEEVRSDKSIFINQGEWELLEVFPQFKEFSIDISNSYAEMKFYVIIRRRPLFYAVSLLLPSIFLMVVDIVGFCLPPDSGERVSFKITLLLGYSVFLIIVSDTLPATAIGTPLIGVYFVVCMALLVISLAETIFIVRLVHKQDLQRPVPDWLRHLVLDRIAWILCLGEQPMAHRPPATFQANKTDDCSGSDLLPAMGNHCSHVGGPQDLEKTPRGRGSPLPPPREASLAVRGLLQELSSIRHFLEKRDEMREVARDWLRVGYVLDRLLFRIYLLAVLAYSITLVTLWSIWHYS

SMILES | IC50 [µM]
O=C(NCCN1CCCCC1)c1ccc2c(=O)n(Cc3ccccc3Cl)c(=O)[nH]c2c1 | 2.1
O=C(NCCN1CCOCC1)c1ccc2c(=O)n(Cc3ccc(F)cc3)c(=O)[nH]c2c1 | 19.8
CC1CCCCN1CCCNC(=O)c1ccc2c(=O)n(Cc3ccc(Cl)cc3)c(=O)[nH]c2c1 (configuration not stated) | 11.6
CC1CCCCN1CCCNC(=O)c1ccc2c(=O)n(C3CCCCC3)c(=O)[nH]c2c1 (configuration not stated) | 5.9
O=C(NCCN1CCOCC1)c1ccc2c(=O)n(Cc3ccc(Cl)cc3)c(=O)[nH]c2c1 | 15.8
CCC1CCCCN1CCNC(=O)c1ccc2c(=O)n(Cc3ccc(Cl)cc3)c(=O)[nH]c2c1 (configuration not stated) | 13.6
O=C(NCCN1CCOCC1)c1ccc2c(=O)n(-c3ccc(F)cc3)c(=O)[nH]c2c1 | 57
